Results reported in publication PMC4767141, “Discovery of Potent, Orally Bioavailable, Small-Molecule Inhibitors of WNT Signaling from a Cell-Based Pathway Screen” (Journal of Medicinal Chemistry, 2015).

Key:
SRPK1 = biological target: T1, SRPK1 (Homo sapiens, UniProt Q96SB4); test: Millipore kinase panel; assay type: biochemical; conditions: read-out: % Control
T1 construct: purchased Millipore KinaseProfiler (kinases); Cerep (receptors and ion channels)

PRK2 = biological target: T2, PRK2 (Homo sapiens, UniProt Q16513); test: Millipore kinase panel; assay type: biochemical; conditions: read-out: % Control
T2 construct: purchased Millipore KinaseProfiler (kinases); Cerep (receptors and ion channels)

ZIPK = biological target: T3, ZIPK (Homo sapiens, UniProt O43293); test: Millipore kinase panel; assay type: biochemical; conditions: read-out: % Control
T3 construct: purchased Millipore KinaseProfiler (kinases); Cerep (receptors and ion channels)

MLCK = biological target: T4, MLCK (Homo sapiens, UniProt Q9H1R3); test: Millipore kinase panel; assay type: biochemical; conditions: read-out: % Control
T4 construct: purchased Millipore KinaseProfiler (kinases); Cerep (receptors and ion channels)

MRCKBETA = biological target: T5, MRCKBETA (Homo sapiens, UniProt Q9Y5S2); test: Millipore kinase panel; assay type: biochemical; conditions: read-out: % Control
T5 construct: purchased Millipore KinaseProfiler (kinases); Cerep (receptors and ion channels)

PKCALPHA = biological target: T6, PKCALPHA (Homo sapiens, UniProt P17252); test: Millipore kinase panel; assay type: biochemical; conditions: read-out: % Control
T6 construct: purchased Millipore KinaseProfiler (kinases); Cerep (receptors and ion channels)

TAK1 = biological target: T7, TAK1 (Homo sapiens, UniProt O43318); test: Millipore kinase panel; assay type: biochemical; conditions: read-out: % Control
T7 construct: purchased Millipore KinaseProfiler (kinases); Cerep (receptors and ion channels)

β2 (h) = biological target: T8, β2 (h) (Homo sapiens, UniProt P07550); test: CEREP binding panel; conditions: agonist radioligand, read-out: % Inhibition of Control Specific Binding
T8 construct: purchased Millipore KinaseProfiler (kinases); Cerep (receptors and ion channels)

SAPK4 = biological target: T9, SAPK4 (Homo sapiens, UniProt O15264); test: Millipore kinase panel; assay type: biochemical; conditions: read-out: % Control
T9 construct: purchased Millipore KinaseProfiler (kinases); Cerep (receptors and ion channels)
T9 sequence (O15264 whole entry): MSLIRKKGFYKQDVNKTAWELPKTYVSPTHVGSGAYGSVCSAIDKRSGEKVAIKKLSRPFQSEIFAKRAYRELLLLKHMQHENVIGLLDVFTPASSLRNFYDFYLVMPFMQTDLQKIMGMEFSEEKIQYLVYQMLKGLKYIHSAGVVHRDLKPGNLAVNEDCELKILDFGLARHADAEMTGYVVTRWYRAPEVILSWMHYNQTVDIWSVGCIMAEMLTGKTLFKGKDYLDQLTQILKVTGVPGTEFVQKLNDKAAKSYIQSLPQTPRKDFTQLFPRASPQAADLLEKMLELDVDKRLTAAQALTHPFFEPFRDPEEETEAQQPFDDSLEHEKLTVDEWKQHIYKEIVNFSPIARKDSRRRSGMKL

Y1 (h) = biological target: T10, Y1 (h) (Homo sapiens, UniProt P25929); test: CEREP binding panel; conditions: agonist radioligand, read-out: % Inhibition of Control Specific Binding
T10 construct: purchased Millipore KinaseProfiler (kinases); Cerep (receptors and ion channels)
T10 sequence (P25929 whole entry): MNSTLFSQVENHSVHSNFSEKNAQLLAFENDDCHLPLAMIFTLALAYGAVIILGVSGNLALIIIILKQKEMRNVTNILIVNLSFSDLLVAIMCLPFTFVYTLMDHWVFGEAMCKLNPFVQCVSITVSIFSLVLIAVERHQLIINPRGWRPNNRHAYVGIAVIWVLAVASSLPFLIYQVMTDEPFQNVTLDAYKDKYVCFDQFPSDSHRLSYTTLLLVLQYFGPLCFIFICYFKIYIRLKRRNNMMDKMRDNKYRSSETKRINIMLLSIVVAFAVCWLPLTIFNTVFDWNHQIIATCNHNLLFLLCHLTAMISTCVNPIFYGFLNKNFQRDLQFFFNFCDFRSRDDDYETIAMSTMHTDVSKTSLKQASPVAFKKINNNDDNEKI

PDK1 = biological target: T11, PDK1 (Homo sapiens, UniProt O15530); test: Millipore kinase panel; assay type: biochemical; conditions: read-out: % Control
T11 construct: purchased Millipore KinaseProfiler (kinases); Cerep (receptors and ion channels)

NEK3 = biological target: T12, NEK3 (Homo sapiens, UniProt P51956); test: Millipore kinase panel; assay type: biochemical; conditions: read-out: % Control
T12 construct: purchased Millipore KinaseProfiler (kinases); Cerep (receptors and ion channels)
T12 sequence (P51956 whole entry): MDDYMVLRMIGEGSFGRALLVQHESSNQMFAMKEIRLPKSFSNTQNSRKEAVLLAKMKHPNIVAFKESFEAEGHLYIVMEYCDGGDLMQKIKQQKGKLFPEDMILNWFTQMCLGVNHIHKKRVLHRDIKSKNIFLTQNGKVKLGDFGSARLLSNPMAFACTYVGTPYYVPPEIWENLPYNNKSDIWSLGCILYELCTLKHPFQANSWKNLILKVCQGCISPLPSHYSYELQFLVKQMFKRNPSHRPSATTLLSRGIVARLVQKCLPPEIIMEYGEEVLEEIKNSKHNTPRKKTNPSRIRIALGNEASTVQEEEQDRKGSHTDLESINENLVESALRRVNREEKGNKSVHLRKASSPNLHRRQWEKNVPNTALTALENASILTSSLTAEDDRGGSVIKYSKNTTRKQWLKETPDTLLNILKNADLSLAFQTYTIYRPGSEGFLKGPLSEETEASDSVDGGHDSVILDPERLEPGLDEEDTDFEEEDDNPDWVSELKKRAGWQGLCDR

BTK = biological target: T13, BTK (Homo sapiens, UniProt Q06187); test: Millipore kinase panel; assay type: biochemical; conditions: read-out: % Control
T13 construct: purchased Millipore KinaseProfiler (kinases); Cerep (receptors and ion channels)

D1 (h) = biological target: T14, D1 (h) (Homo sapiens, UniProt P21728); test: CEREP binding panel; conditions: antagonist radioligand, read-out: % Inhibition of Control Specific Binding
T14 construct: purchased Millipore KinaseProfiler (kinases); Cerep (receptors and ion channels)

TIE2 = biological target: T15, TIE2 (Homo sapiens, UniProt Q02763); test: Millipore kinase panel; assay type: biochemical; conditions: read-out: % Control
T15 construct: purchased Millipore KinaseProfiler (kinases); Cerep (receptors and ion channels)
T15 sequence (Q02763 23-1124): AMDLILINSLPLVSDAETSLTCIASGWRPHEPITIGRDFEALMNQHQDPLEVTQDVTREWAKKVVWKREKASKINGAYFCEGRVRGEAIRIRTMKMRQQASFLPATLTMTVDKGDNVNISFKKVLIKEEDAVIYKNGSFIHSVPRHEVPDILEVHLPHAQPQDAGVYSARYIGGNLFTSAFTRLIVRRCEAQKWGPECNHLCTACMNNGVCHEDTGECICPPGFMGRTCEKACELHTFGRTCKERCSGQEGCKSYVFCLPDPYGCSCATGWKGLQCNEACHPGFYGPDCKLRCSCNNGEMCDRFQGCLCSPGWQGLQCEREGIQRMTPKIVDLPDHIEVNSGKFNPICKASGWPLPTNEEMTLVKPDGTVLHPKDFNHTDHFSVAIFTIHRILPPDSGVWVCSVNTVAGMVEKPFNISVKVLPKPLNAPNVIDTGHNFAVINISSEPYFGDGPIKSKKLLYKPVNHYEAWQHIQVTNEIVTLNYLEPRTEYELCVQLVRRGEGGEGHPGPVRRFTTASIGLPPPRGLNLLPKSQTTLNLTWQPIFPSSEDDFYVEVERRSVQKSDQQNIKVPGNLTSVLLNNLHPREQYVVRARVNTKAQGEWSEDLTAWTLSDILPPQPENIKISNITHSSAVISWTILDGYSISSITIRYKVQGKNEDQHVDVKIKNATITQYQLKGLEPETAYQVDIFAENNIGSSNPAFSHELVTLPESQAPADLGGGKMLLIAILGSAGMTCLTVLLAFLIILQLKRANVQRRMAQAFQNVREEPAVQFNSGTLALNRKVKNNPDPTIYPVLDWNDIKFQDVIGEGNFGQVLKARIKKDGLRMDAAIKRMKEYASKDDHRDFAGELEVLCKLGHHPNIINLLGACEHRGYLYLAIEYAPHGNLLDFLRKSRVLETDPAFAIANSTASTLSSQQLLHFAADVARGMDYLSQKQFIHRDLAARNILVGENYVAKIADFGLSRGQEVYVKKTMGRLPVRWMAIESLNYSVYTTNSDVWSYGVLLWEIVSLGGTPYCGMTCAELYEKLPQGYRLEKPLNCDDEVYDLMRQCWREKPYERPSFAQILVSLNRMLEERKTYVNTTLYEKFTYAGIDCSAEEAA

B2 (h) = biological target: T16, B2 (h) (Homo sapiens, UniProt P30411); test: CEREP binding panel; conditions: agonist radioligand, read-out: % Inhibition of Control Specific Binding
T16 construct: purchased Millipore KinaseProfiler (kinases); Cerep (receptors and ion channels)

CK1GAMMA1 = biological target: T17, CK1GAMMA1 (Homo sapiens, UniProt Q9HCP0); test: Millipore kinase panel; assay type: biochemical; conditions: read-out: % Control
T17 construct: purchased Millipore KinaseProfiler (kinases); Cerep (receptors and ion channels)

dopamine transporter (h) = biological target: T18, dopamine transporter (h) (Homo sapiens, UniProt Q01959); test: CEREP binding panel; conditions: antagonist radioligand, read-out: % Inhibition of Control Specific Binding
T18 construct: purchased Millipore KinaseProfiler (kinases); Cerep (receptors and ion channels)

RSK2 = biological target: T19, RSK2 (Homo sapiens, UniProt P51812); test: Millipore kinase panel; assay type: biochemical; conditions: read-out: % Control
T19 construct: purchased Millipore KinaseProfiler (kinases); Cerep (receptors and ion channels)

MAPK1 = biological target: T20, MAPK1 (Homo sapiens, UniProt P27361); test: Millipore kinase panel; assay type: biochemical; conditions: read-out: % Control
T20 construct: purchased Millipore KinaseProfiler (kinases); Cerep (receptors and ion channels)

IKKBETA = biological target: T21, IKKBETA (Homo sapiens, UniProt O14920); test: Millipore kinase panel; assay type: biochemical; conditions: read-out: % Control
T21 construct: purchased Millipore KinaseProfiler (kinases); Cerep (receptors and ion channels)

GCK = biological target: T22, GCK (Homo sapiens, UniProt Q12851); test: Millipore kinase panel; assay type: biochemical; conditions: read-out: % Control
T22 construct: purchased Millipore KinaseProfiler (kinases); Cerep (receptors and ion channels)

PLK3 = biological target: T23, PLK3 (Homo sapiens, UniProt Q9H4B4); test: Millipore kinase panel; assay type: biochemical; conditions: read-out: % Control
T23 construct: purchased Millipore KinaseProfiler (kinases); Cerep (receptors and ion channels)

α1 (non-selective) = test: CEREP binding panel; conditions: 10 μM, antagonist radioligand
MNK2 = biological target: T24, MNK2 (Homo sapiens, UniProt Q9HBH9); test: Millipore kinase panel; assay type: biochemical; conditions: read-out: % Control
T24 construct: purchased Millipore KinaseProfiler (kinases); Cerep (receptors and ion channels)

FAK = biological target: T25, FAK (Homo sapiens, UniProt Q05397); test: Millipore kinase panel; assay type: biochemical; conditions: read-out: % Control
T25 construct: purchased Millipore KinaseProfiler (kinases); Cerep (receptors and ion channels)

ABL = biological target: T26, ABL (Homo sapiens, UniProt P00519); test: Millipore kinase panel; assay type: biochemical; conditions: read-out: % Control
T26 construct: purchased Millipore KinaseProfiler (kinases); Cerep (receptors and ion channels)

EPHA3 = biological target: T27, EPHA3 (Homo sapiens, UniProt P29320); test: Millipore kinase panel; assay type: biochemical; conditions: read-out: % Control
T27 construct: purchased Millipore KinaseProfiler (kinases); Cerep (receptors and ion channels)

MTOR = biological target: T28, MTOR (Homo sapiens, UniProt P42345); test: Millipore kinase panel; assay type: biochemical; conditions: read-out: % Control
T28 construct: purchased Millipore KinaseProfiler (kinases); Cerep (receptors and ion channels)

5-HT2B (h) = biological target: T29, 5-HT2B (h) (Homo sapiens, UniProt P41595); test: CEREP binding panel; conditions: agonist radioligand, read-out: % Inhibition of Control Specific Binding
T29 construct: purchased Millipore KinaseProfiler (kinases); Cerep (receptors and ion channels)

IRAK4 = biological target: T30, IRAK4 (Homo sapiens, UniProt Q9NWZ3); test: Millipore kinase panel; assay type: biochemical; conditions: read-out: % Control
T30 construct: purchased Millipore KinaseProfiler (kinases); Cerep (receptors and ion channels)
T30 sequence (Q9NWZ3 whole entry): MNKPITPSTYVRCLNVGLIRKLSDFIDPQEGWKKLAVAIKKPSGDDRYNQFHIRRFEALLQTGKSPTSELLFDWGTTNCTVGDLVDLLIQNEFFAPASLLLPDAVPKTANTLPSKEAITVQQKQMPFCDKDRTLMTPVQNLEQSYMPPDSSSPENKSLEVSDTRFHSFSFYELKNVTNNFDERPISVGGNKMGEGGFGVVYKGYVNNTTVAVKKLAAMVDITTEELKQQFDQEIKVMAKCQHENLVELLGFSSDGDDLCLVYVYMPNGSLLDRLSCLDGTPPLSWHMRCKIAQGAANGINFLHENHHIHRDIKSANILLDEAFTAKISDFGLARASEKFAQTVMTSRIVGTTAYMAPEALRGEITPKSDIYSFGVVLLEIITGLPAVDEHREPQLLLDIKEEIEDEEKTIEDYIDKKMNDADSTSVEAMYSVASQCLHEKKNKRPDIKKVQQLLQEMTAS

PKG1BETA = biological target: T31, PKG1BETA (Homo sapiens, UniProt Q13976); test: Millipore kinase panel; assay type: biochemical; conditions: ATP at Km
T31 construct: purchased Millipore

DCAMKL2 = biological target: T32, DCAMKL2 (Homo sapiens, UniProt Q8N568); test: Millipore kinase panel; assay type: biochemical; conditions: read-out: % Control
T32 construct: purchased Millipore KinaseProfiler (kinases); Cerep (receptors and ion channels)
T32 sequence (Q8N568 whole entry): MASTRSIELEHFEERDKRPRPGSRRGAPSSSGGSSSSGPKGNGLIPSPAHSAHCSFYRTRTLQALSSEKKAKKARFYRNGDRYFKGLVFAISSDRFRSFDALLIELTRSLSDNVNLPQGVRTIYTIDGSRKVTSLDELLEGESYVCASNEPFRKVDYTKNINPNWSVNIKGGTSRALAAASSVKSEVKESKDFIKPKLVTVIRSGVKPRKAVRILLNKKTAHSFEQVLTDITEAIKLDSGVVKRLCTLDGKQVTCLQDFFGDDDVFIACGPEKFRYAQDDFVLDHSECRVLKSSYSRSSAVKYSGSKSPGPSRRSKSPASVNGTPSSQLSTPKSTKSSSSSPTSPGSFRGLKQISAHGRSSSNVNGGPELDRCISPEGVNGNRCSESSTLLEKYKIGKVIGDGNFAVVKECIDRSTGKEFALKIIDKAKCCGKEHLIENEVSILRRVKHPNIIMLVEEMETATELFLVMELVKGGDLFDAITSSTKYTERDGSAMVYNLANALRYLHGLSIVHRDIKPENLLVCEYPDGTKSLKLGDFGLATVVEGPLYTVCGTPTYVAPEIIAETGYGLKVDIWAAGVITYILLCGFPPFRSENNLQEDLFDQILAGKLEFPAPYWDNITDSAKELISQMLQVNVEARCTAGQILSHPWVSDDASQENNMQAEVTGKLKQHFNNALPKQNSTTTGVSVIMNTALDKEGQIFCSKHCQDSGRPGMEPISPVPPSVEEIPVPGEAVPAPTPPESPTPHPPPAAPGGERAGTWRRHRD

FYN = biological target: T33, FYN (Homo sapiens, UniProt P06241); test: Millipore kinase panel; assay type: biochemical; conditions: read-out: % Control
T33 construct: purchased Millipore KinaseProfiler (kinases); Cerep (receptors and ion channels)

PIM-3 = biological target: T34, PIM-3 (Homo sapiens, UniProt Q86V86); test: Millipore kinase panel; assay type: biochemical; conditions: read-out: % Control
T34 construct: purchased Millipore KinaseProfiler (kinases); Cerep (receptors and ion channels)

JAK3 = biological target: T35, JAK3 (Homo sapiens, UniProt P52333); test: Millipore kinase panel; assay type: biochemical; conditions: read-out: % Control
T35 construct: purchased Millipore KinaseProfiler (kinases); Cerep (receptors and ion channels)
T35 sequence (P52333 whole entry): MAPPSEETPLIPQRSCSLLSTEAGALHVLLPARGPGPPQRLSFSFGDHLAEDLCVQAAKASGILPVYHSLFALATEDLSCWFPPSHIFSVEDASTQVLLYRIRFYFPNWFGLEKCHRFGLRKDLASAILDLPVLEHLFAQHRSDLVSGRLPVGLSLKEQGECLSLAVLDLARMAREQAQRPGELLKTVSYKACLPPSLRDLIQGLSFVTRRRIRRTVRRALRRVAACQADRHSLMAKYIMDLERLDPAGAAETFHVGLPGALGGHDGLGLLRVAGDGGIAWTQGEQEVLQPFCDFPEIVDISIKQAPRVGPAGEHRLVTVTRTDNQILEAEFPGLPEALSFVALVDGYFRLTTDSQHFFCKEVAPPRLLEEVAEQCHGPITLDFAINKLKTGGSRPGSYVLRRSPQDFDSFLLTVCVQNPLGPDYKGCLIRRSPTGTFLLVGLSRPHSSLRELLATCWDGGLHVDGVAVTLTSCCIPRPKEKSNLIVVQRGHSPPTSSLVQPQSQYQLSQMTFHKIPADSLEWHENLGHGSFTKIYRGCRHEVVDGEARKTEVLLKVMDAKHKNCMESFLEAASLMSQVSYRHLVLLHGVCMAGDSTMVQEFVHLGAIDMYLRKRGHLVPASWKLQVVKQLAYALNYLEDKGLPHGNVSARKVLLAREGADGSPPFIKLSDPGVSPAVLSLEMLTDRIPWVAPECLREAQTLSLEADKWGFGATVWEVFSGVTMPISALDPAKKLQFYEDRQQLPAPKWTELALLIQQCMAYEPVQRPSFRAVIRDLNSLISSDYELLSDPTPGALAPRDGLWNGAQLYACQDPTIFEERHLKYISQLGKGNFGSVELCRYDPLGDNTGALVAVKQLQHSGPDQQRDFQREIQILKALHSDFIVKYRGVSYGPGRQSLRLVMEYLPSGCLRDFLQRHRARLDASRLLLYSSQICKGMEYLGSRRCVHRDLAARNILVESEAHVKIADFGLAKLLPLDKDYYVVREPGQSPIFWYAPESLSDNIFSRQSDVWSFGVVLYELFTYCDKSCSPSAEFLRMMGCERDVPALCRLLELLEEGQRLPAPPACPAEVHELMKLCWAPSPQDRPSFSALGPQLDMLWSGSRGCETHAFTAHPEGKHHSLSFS

ARK5 = biological target: T36, ARK5 (Homo sapiens, UniProt O60285); test: Millipore kinase panel; assay type: biochemical; conditions: read-out: % Control
T36 construct: purchased Millipore KinaseProfiler (kinases); Cerep (receptors and ion channels)

5-HT3 (h) = biological target: T37, 5-HT3 (h) (Homo sapiens, UniProt P46098); test: CEREP binding panel; conditions: antagonist radioligand, read-out: % Inhibition of Control Specific Binding
T37 construct: purchased Millipore KinaseProfiler (kinases); Cerep (receptors and ion channels)

CDK6/CYCLIND3 = biological target: T38, CDK6/CYCLIND3 (Homo sapiens, UniProt Q00534); test: Millipore kinase panel; assay type: biochemical; conditions: read-out: % Control
T38 construct: purchased Millipore KinaseProfiler (kinases); Cerep (receptors and ion channels)

SAPK2A = biological target: T39, SAPK2A (Homo sapiens, UniProt Q16539); test: Millipore kinase panel; assay type: biochemical; conditions: read-out: % Control
T39 construct: purchased Millipore KinaseProfiler (kinases); Cerep (receptors and ion channels)

EPHA7 = biological target: T40, EPHA7 (Homo sapiens, UniProt Q15375); test: Millipore kinase panel; assay type: biochemical; conditions: read-out: % Control
T40 construct: purchased Millipore KinaseProfiler (kinases); Cerep (receptors and ion channels)

A3 (h) = biological target: T41, A3 (h) (Homo sapiens, UniProt P0DMS8); test: CEREP binding panel; conditions: agonist radioligand, read-out: % Inhibition of Control Specific Binding
T41 construct: purchased Millipore KinaseProfiler (kinases); Cerep (receptors and ion channels)

BMX = biological target: T42, BMX (Homo sapiens, UniProt P51813); test: Millipore kinase panel; assay type: biochemical; conditions: read-out: % Control
T42 construct: purchased Millipore KinaseProfiler (kinases); Cerep (receptors and ion channels)

[1] = biological target: T43, norepinephrine transporter (h) (Homo sapiens, UniProt P23975); test: CEREP binding panel; conditions: antagonist radioligand, read-out: % Inhibition of Control Specific Binding
T43 construct: purchased Millipore KinaseProfiler (kinases); Cerep (receptors and ion channels)

Structure (SMILES): Cn1cc(-c2ccc(-c3cncc(Cl)c3N3CCC4(CCNC4=O)CC3)cc2)cn1 [Compound 74, 8-(3-Chloro-5-(4-(1-methyl-1H-pyrazol-4-yl)phenyl)pyridin-4-yl)-2,8-diazaspiro[4.5]decan-1-one]
- remaining activity at 1 µM (SRPK1): -4%
- remaining activity at 1 µM (PRK2): 0%
- remaining activity at 1 µM (ZIPK): 6%
- remaining activity at 1 µM (MLCK): 1%
- remaining activity at 1 µM (MRCKBETA): -4%
- remaining activity at 1 µM (PKCALPHA): -5%
- remaining activity at 1 µM (TAK1): 6%
- inhibition at 10 µM (β2 (h)): 6%
- remaining activity at 1 µM (SAPK4): -4%
- inhibition at 10 µM (Y1 (h)): -7%
- remaining activity at 1 µM (PDK1): -12%
- remaining activity at 1 µM (NEK3): 15%
- remaining activity at 1 µM (BTK): -3%
- inhibition at 10 µM (D1 (h)): 7%
- remaining activity at 1 µM (TIE2): -25%
- inhibition at 10 µM (B2 (h)): 0%
- remaining activity at 1 µM (CK1GAMMA1): -25%
- inhibition at 10 µM (dopamine transporter (h)): 40%
- remaining activity at 1 µM (RSK2): -12%
- remaining activity at 1 µM (MAPK1): 11%
- remaining activity at 1 µM (IKKBETA): 2%
- remaining activity at 1 µM (GCK): -28%
- remaining activity at 1 µM (PLK3): 0%
- % Inhibition of Control Specific Binding (α1 (non-selective)): 8%
- remaining activity at 1 µM (MNK2): 2%
- remaining activity at 1 µM (FAK): -5%
- remaining activity at 1 µM (ABL): -5%
- remaining activity at 1 µM (EPHA3): 6%
- remaining activity at 1 µM (MTOR): 7%
- inhibition at 10 µM (5-HT2B (h)): 6%
- remaining activity at 1 µM (IRAK4): -3%
- IC50 (PKG1BETA): > 10 µM
- remaining activity at 1 µM (DCAMKL2): 1%
- remaining activity at 1 µM (FYN): 1%
- remaining activity at 1 µM (PIM-3): 8%
- remaining activity at 1 µM (JAK3): 0%
- remaining activity at 1 µM (ARK5): -2%
- inhibition at 10 µM (5-HT3 (h)): 9%
- remaining activity at 1 µM (CDK6/CYCLIND3): -3%
- remaining activity at 1 µM (SAPK2A): 1%
- remaining activity at 1 µM (EPHA7): 6%
- inhibition at 10 µM (A3 (h)): 17%
- remaining activity at 1 µM (BMX): -2%
- inhibition at 10 µM [1]: 14%
